Data taken from patent US6033669A, “Methods for generating cytotoxic T cells and treatment of diseases thereby” (priority 1992, dated 2000).
Read-outs that look alike come from different tables or passages of the source.

Experiments:
[1] = tested on: pep 9(PR8)-coated RMA target cells; assay: Kinetics of CTL activity after one s.c. injection of peptide (51Cr release); assay type: in vivo, mice; settings: primed once with 100 μg
EL4 and RMA-S cells = assay type: cell-based, mice; settings: FIG. 11
[2] = tested on: monoclonal antibody MC2101; assay: ELISA recognition of Gal2 glycopeptides by monoclonal antibody MC2101; assay type: binding, mouse; settings: antibody MC2101 (specificity Galabios Gal--Gal); peptides coated at 50 μg/ml, pH 9.6
Protocol: (§1) Peptides (50 μg/ml) were diluted in 0.05 M carbonate buffer (pH 9.6) and 100 μl/well was added to flat-bottomed Costar microplates (cat. No 3590) for incubation over-night at 4° C. Plates were washed once with PBS, pre-incubated with […] for 30 minutes at room temperature and washed twice with PBS/0.05% Tween buffer. Monoclonal antibodies were diluted in 0.5% gelatin/PBS/0.05% Tween, added to microplates and incubated for 2 hours at room temperaure, and flick-washed with PBS/Tween. Alkaline phosphatase conjugated rabbit anti-mouse immunoglobulins (Dakopauts code No. S 414) was diluted 1/1000 in PBS/Tween and added as 100 μl/well. After 2 hours incubation at room temperature and 4 washes with PBS/Tween, 100 μl of alkaline phosphatase substrate solution was added. Plates were read after 2 hour at room temperaure, using a Multiskan System (Lab systems), for optical density at 405 nm.
The ELISA assay was performed as described in connection with Table 4.

[3] = tested on: monoclonal antibody Pk002; assay: ELISA recognition of Gal2 glycopeptides by monoclonal antibody Pk002; assay type: binding, mouse; settings: antibody Pk002 (specificity Globotriaosyl Gal--Gal--Glc, CD77); peptides coated at 50 μg/ml, pH 9.6
Protocol: as §1

[4] = tested on: target cells coated with different peptides and glycopeptides; assay: Immunogenicity: mice immunized with glycopeptides, restimulated CTL tested for killing of coated target cells; assay type: in vivo; settings: Table 5; comment on immunogenicity and cross-reactivity of CTL
[5] = 100 μg s.c., restimulated with 5 μM in vitro
[6] = priming 1 μg, restimulation 0.05 μM, effector:target 20:1
[7] = priming 1 μg, restimulation 0.05 μM, effector:target 40:1
[8] = priming 1 μg, restimulation 5.00 μM, effector:target 20:1
[9] = priming 1 μg, restimulation 5.00 μM, effector:target 40:1
[10] = priming 10 μg, restimulation 0.05 μM, effector:target 20:1
[11] = priming 10 μg, restimulation 0.05 μM, effector:target 40:1
[12] = priming 10 μg, restimulation 5.00 μM, effector:target 20:1
[13] = priming 10 μg, restimulation 5.00 μM, effector:target 40:1
[14] = priming 100 μg, restimulation 0.05 μM, effector:target 20:1
[15] = priming 100 μg, restimulation 0.05 μM, effector:target 40:1
[16] = priming 100 μg, restimulation 5.00 μM, effector:target 20:1
[17] = priming 100 μg, restimulation 5.00 μM, effector:target 40:1

## ASNENMETM [pep 9(PR8)]
[1]
  CTL activity at day 30 after priming: lower level of CTL activity could still be detected
[1]; restimulated with 5 μM, effector:target 60:1
  time of peak CTL activity after the immunization: 7 days
EL4 and RMA-S cells
  killing of peptide treated RMA-S and EL-4 target cells by influenza A (PR8) specific CTL: strongly killed
EL4 target cells; [5]
  CTL response against pep 9(PR8)-coated RMA and EL4 cells: strong CTL response
  killing of virus-infected target cells: not killed
EL4 target cells; FIG. 7a
  lysis of pep 9(PR8)-coated EL4 cells by CTL depleted for CD8^+ T cells: failed to lyse
EL4 target cells; FIG. 7a, pep 9(PR8)-coated target cells
  effect of depletion of CD4^+ T cells on cytolytic activity: did not affect the cytolytic activity
EL4 target cells; immunization with 10 μg and 1 μg
  CTL response: less or even no CTL response
EL4 target cells; mouse, in vivo
  MHC restriction of peptide-induced cytotoxicity: H-2D^b restricted
  specificity of induced CTL: preferentially killed their corresponding peptide-coated and virus-infected cells
EL4 target cells; [6]
  EL4 target lysis (%) PR8-infected: 10.50%
  EL4 target lysis (%) Untreated: 3.32%
  EL4 target lysis (%) pep9(PR8)-coated: 15.54%
EL4 target cells; [7]
  EL4 target lysis (%) PR8-infected: 12.43%
  EL4 target lysis (%) Untreated: 4.08%
  EL4 target lysis (%) pep9(PR8)-coated: 16.44%
EL4 target cells; [8]
  EL4 target lysis (%) PR8-infected: 5.54%
  EL4 target lysis (%) Untreated: 2.66%
  EL4 target lysis (%) pep9(PR8)-coated: 9.28%
EL4 target cells; [9]
  EL4 target lysis (%) PR8-infected: 6.88%
  EL4 target lysis (%) Untreated: 3.34%
  EL4 target lysis (%) pep9(PR8)-coated: 11.85%
EL4 target cells; [10]
  EL4 target lysis (%) PR8-infected: 23.75%
  EL4 target lysis (%) Untreated: 4.14%
  EL4 target lysis (%) pep9(PR8)-coated: 34.60%
EL4 target cells; [11]
  EL4 target lysis (%) PR8-infected: 31.19%
  EL4 target lysis (%) Untreated: 5.74%
  EL4 target lysis (%) pep9(PR8)-coated: 45.52%
EL4 target cells; [12]
  EL4 target lysis (%) PR8-infected: 13.98%
  EL4 target lysis (%) Untreated: 4.19%
  EL4 target lysis (%) pep9(PR8)-coated: 22.09%
EL4 target cells; [13]
  EL4 target lysis (%) PR8-infected: 15.04%
  EL4 target lysis (%) Untreated: 5.63%
  EL4 target lysis (%) pep9(PR8)-coated: 23.54%
EL4 target cells; [14]
  EL4 target lysis (%) PR8-infected: 30.07%
  EL4 target lysis (%) Untreated: 0.51%
  EL4 target lysis (%) pep9(PR8)-coated: 50.73%
EL4 target cells; [15]
  EL4 target lysis (%) PR8-infected: 30.76%
  EL4 target lysis (%) Untreated: 0.12%
  EL4 target lysis (%) pep9(PR8)-coated: 59.42%
EL4 target cells; [16]
  EL4 target lysis (%) PR8-infected: 8.50%
  EL4 target lysis (%) Untreated: 4.21%
  EL4 target lysis (%) pep9(PR8)-coated: 34.73%
EL4 target cells; [17]
  EL4 target lysis (%) PR8-infected: 7.00%
  EL4 target lysis (%) Untreated: 4.61%
  EL4 target lysis (%) pep9(PR8)-coated: 43.68%

## C A S N E N M E T M (CASNENMETM) [CAS10]
[2]
  Absorbance at 405 nm: 0.02
[3]
  Absorbance at 405 nm: 0.01

## CSGPSNTPPEI [CSG11]
[2]
  Absorbance at 405 nm: 0.01
[3]
  Absorbance at 405 nm: 0.08

## F A P G h Y P A L [FAP9-5h]
[4]
  Comments: Weaker, low FAP9 reactivity

## FAP9: K^b binding peptide, SEQ ID NO: 20; sequence not printed (FAPGNYPAL)
[4]
  Comments: Strong, with high FAP9-5h reactivity

## R G Y h Y Q G L [RGY8-4h]
[4]
  Comments: Strong, with RGY8 reactivity

## RGYVYQGL [RGY8]
[4]
  Comments: Some RGY8-4h reactivity
